According to US5506213A, “Adminstration of 2'-halo-2'-deoxy adenosine to treat inflammatory bowel disease” (priority 1994, dated 1996):

Key:
HIV [1] = assay: Inhibition of p24 (gag) production of HIV from MDM cells, 3-day assay; type: cell-based; details: 0.1-100 μM
HIV [2] = details: cultured human T lymphoblasts; cited from earlier work
HIV [3] = details: cited from earlier work
adenosine deaminase = details: cited from earlier work
[4] = tested on: Adenocarcinoma 755 (Ad755); details: cited from earlier work
[5] = tested on: delayed-type hypersensitivity (DTH) reaction; assay: Delayed-type hypersensitivity to ovalbumin in guinea pigs, different dosages of CdA; type: in vivo, guinea pig; details: dexamethasone 5 mg/kg; 24 and 48 hours post-challenge; p<0.01
Description: (§1) Delayed-type hypersensitivity (DTH) is a cell-mediated immune response that typically takes longer than 12 hours to develop. In the guinea pig, a DTH reaction to an antigen can be established by first immunizing the animal with the antigen in an adjuvant such as Freund's complete adjuvant. Subsequent intradermal injection of the antigen causes no change for at least 10 hours, after which there is a gradual increase in erythema and swelling in response to antigen injection. This response peaks about at about 24 hours after challenge, then gradually subsides.
In another study, the effects of different dosages of CdA on the DTH reaction were examined. Guinea pigs sensitized to ovalbumin were treated with saline (control), dexamethasone (5 mg/kg), and CdA at 1 mg/kg or 0.1 mg/kg. Three days after treatment, the animals were challenged with ovalbumin intradermally. The areas of the skin lesions were measured at 6, 24, and 48 hours after challenge.

[6] = tested on: delayed-type hypersensitivity (DTH) response; assay: Delayed-type hypersensitivity to ovalbumin in guinea pigs, oral and intraperitoneal treatment; type: in vivo, guinea pig; details: dexamethasone 5 mg/kg, CdA or CAFdA 1 mg/kg, 24 and 48 hours, p<0.01
Description: as §1
Histologically, the inflammatory response is characterized by intense inundation of the site with mononuclear cells, of which about half are lymphocytes and the other half monocytes. DTH is therefore an indicator of a monocyte-mediated immune reaction.
In one study, guinea pigs were sensitized to ovalbumin in adjuvant. The animals were then treated either orally or intraperitoneally with saline (control), dexamethasone (5 mg/kg), CdA (1 mg/kg) or CAFdA (1 mg/kg). The animals were then injected with ovalbumin intradermally to elicit the DTH response. The mean area of the swelling size was measured for each animal (nine or ten animals were treated for each protocol).

[7] = tested on: antigen-induced arthritis; assay: Antigen-induced arthritis in rabbits; type: in vivo; details: CdA 1 mg/kg, tepoxalin 25 mg/kg, naproxen 5 mg/kg
Description: Antigen-induced arthritis in rabbits is an animal model of rheumatoid arthritis. In this model, the rabbits are sensitized to an antigen such as ovalbumin or methylated bovine serum albumin in an adjuvant. Several weeks later, the same antigen is injected directly into the joints of the animal. […] Pettipher et al., Br. J. Exp. Path., 69:113-122 (1988).
Rabbits with antigen-induced arthritis were treated with CdA (1 mg/kg), tepoxalin (25 mg/kg) or naproxen (5 mg/kg).

[8] = pH value of 1 at 37 degrees C.; cited from earlier work
monocytes = assay: Direct comparative cytotoxicity assay (Table II), monocytes; type: cell-based, human; details: Monocytes
Source text: (§2) The two compounds, CdA and CAFdA, were also compared for in vitro activity against another group of human cell lines in a direct comparative assay.
(§3) ^1 Concentration that produced 50 percent reduction in all numbers

[9] = tested on: Peripheral blood lymphocytes; assay: Direct comparative cytotoxicity assay (Table II), peripheral blood lymphocytes; type: cell-based, human; details: Peripheral blood lymphocytes
Source text: as §2, §3

[10] = tested on: monocyte-like cell line U937; assay: cells; details: Homo sapiens, U-937
Description: (§5) Seven different cell lines were treated with varying concentrations of 2-chloro-9,1'-beta-2'-deoxy-2'-fluoro-D-arabinofuranosyladenine (CAFdA) to determine percent viability. CAFdA concentrations ranging from 0 to about 260 nM were used to treat each cell line in vitro.

[11] = tested on: monocyte-like cell line HL-60; assay: cells; details: Homo sapiens
Description: as §5

DHL9, wild type = assay: Direct comparative cytotoxicity assay (Table II), DHL9 wild type; type: cell-based, human; details: DHL9, wild type
Source text: as §2, §3
(§4) ^2 CEM cells are T lymphoblasts; DHL9 cells are lymphoblasts.

[12] = tested on: monocyte-like cell line THP-1; assay: cells; details: Homo sapiens
Description: as §5

T cell line Molt-4 = assay: cells; details: Homo sapiens
Description: as §5

T cell line CEM = assay: cells; details: Homo sapiens
Description: as §5

[13] = tested on: CEM, Increased 5'-nucleoside; assay: Direct comparative cytotoxicity assay (Table II), CEM increased 5'-nucleoside; type: cell-based, human; details: CEM, Increased 5'-nucleoside
Source text: as §2, §3, §4

[14] = tested on: DHL9, Increased ribonucleotide reduction; assay: Direct comparative cytotoxicity assay (Table II), DHL9 increased ribonucleotide reduction; type: cell-based, human; details: DHL9, Increased ribonucleotide reduction
Source text: as §2, §3, §4

CEM, wild type = assay: Direct comparative cytotoxicity assay (Table II), CEM wild type; type: cell-based, human; details: CEM, wild type
Source text: as §2, §3, §4

[15] = Homo sapiens, 120 h, read-out: ID50: concentration that produced 50 percent reduction in all numbers after five days

For `Cc1cn([C@H]2C[C@H](N=[N+]=[N-])[C@@H](CO)O2)c(=O)[nH]c1=O` [AZT, 3'-azido-3'-deoxythymidine], the “inhibition of p24 (gag) production” value (HIV [1]) is given as “none of those compounds provided any inhibition”, the “replication of HIV” value (HIV [2]) is given as “blocked the replication of HIV” and the “virus isolation rates from peripheral blood cells” value (HIV [3]; clinical trials with AZT) is given as “no effect”. The “CD4 (T4) peripheral blood cell counts” value (HIV [3]; patients with AIDS or AIDS-related complex) was “elevation of CD4 (T4) peripheral blood cell counts” and the tolerability (HIV [3]; patients with AIDS or AIDS-related disease complexes) was “well tolerated”.

In the case of `Nc1nc(F)nc2c1ncn2[C@@H]1O[C@H](CO)[C@@H](O)[C@H]1O` [2-fluoroadenosine], the “substrate behaviour toward adenosine deaminase” value (adenosine deaminase) is given as “negligible activity”, the tolerated dose ([4]; C57 black mice implanted with Ad755) is given as “about 1 milligram per kilogram of body weight” and the “antitumor activity at the tolerated level” value ([4]; against Ad755 as well as leukemia L1210 and the Erlich ascites tumor) is given as “inactive”.

For `C[C@@H]1C[C@H]2[C@@H]3CCC4=CC(=O)C=C[C@]4(C)[C@@]3(F)[C@@H](O)C[C@]2(C)[C@@]1(O)C(=O)CO` [dexamethasone, reference compound], the “swelling compared to control saline treated animals” value [5] was “effective at inhibiting swelling”, the “swelling after ovalbumin challenge compared to saline control” value (shortened to “swelling … compared to saline control”) ([6]; intraperitoneal) was “significant inhibition of swelling” and the “swelling … compared to saline control” value ([6]; oral) was “significant inhibition of swelling”.

In the case of `COc1ccc2cc([C@H](C)C(=O)O)ccc2c1` [Naproxen, naproxen, reference compound], the “pathological examination of joints compared to untreated controls” value [7] is reported as “appeared to exacerbate the inflammation and tissue destruction”.

In the case of `Nc1ncnc2c1ncn2[C@H]1CC[C@@H](CO)O1` [ddA, 2',3'-dideoxyadenosine], the “inhibition of p24 (gag) production” value (HIV [1]) is listed as “none of those compounds provided any inhibition”, the half-time [8] is listed as 35 s and the “substrate behaviour toward adenosine deaminase” value (adenosine deaminase) is listed as “known substrate for adenosine deaminase”.

With `Nc1nc(Cl)nc2c1ncn2[C@@H]1O[C@H](CO)[C@@H](O)[C@@H]1F` [CAFdA, 2-chloro-9,1'-beta-2'-deoxy-2'-fluoro-D-arabinofuranosyladenine] the IC50 (monocytes; Homo sapiens, Monocyte, 120 h, read-out: ID50: concentration that produced 50 percent reduction in all numbers after five days) was 47 nM, the “ID50 ratio CAFdA / CdA” value (monocytes) was 2.1 and the IC50 ([9]; Homo sapiens, Lymphocyte, 120 h, read-out: ID50: concentration that produced 50 percent reduction in all numbers after five days) was 18 nM. For the same compound, the “ID50 ratio CAFdA / CdA” value [9] was 1.9, the viability at 0.06 µM [10] was under 20% and the viability at 0.13 µM [10] was under 10%. For the same compound, the “swelling … compared to saline control” value ([6]; intraperitoneal) was “significant inhibition of swelling”, the “swelling … compared to saline control” value ([6]; oral) was “significant inhibition of swelling” and the viability at 0.05 µM [11] was at most 60%. For the same compound, the viability at 0.06 µM [11] was under 20%, the viability at 0.13 µM [11] was under 10% and the “ID50 ratio CAFdA / CdA” value (DHL9, wild type) was 1.9. The IC50 (DHL9, wild type; [15]) was 150 nM, the viability at 0.05 µM [12] was at most 60% and the viability at 0.06 µM [12] was under 20%. For the same compound, the viability at 0.13 µM [12] was under 10%, the viability at 0.06 µM (T cell line Molt-4) was under 20% and the viability at 0.13 µM (T cell line Molt-4) was under 10%. For the same compound, the viability at 0.05 µM (T cell line CEM) was at most 60%, the viability at 0.06 µM (T cell line CEM) was under 20% and the viability at 0.13 µM (T cell line CEM) was under 10%. The “ID50 ratio CAFdA / CdA” value [13] was 2.1, the “ID50 ratio CAFdA / CdA” value [14] was 15 and the IC50 [14, 15] was 6000 nM. For the same compound, the “ID50 ratio CAFdA / CdA” value (CEM, wild type) was 3.1 and the IC50 (CEM, wild type; [15]) was 67 nM.
